Data published in patent US20180093951A1, “PESTICIDALLY ACTIVE CAR[…] THIOCAR[…] DERIVATIVES” (Syngenta Participations AG, priority 2015, published 2018).

Legend:
[1] = test system: Tetranychus Urticae; assay: Tetranychus urticae (two-spotted spider mite) feeding/contact activity on bean leaf discs; assay type: in vivo; details: foliar, 192 h, application rate of 200 ppm, mixed population (mobile stages), 8 days after infestation
Procedure: Example B4: Tetranychus Urticae (Two-Spotted Spider Mite) (Feeding/Contact Activity)
Bean leaf discs on agar in 24-well microtiter plates were sprayed with aqueous test solutions prepared from 10′000 ppm DMSO stock solutions. After drying the leaf discs were infested with a mite population of mixed ages. The samples were assessed for mortality on mixed population (mobile stages) 8 days after infestation.

[2] = test system: Spodoptera littoralis; assay: Spodoptera littoralis (Egyptian cotton leaf worm) cotton leaf disc spray test; assay type: in vivo; details: foliar, 72 h, application rate of 200 ppm, L1 larvae, 3 days after infestation, read-out: control (at least one of mortality, anti-feedant effect, growth inhibition)
Procedure: Example B1: Spodoptera littoralis (Egyptian Cotton Leaf Worm)
Cotton leaf discs were placed on agar in 24-well microtiter plates and sprayed with aqueous test solutions prepared from 10,000 ppm DMSO stock solutions. After drying, the leaf discs were infested with five L1 larvae. The samples were assessed for mortality, anti-feedant effect, and growth inhibition in comparison to untreated samples 3 days after infestation. Control of Spodoptera littoralis by a test sample is when at least one of mortality, anti-feedant effect, and growth inhibition is higher than the untreated sample.

[3] = test system: Plutella Xylostella; assay: Plutella xylostella (diamond back moth) artificial diet test; assay type: in vivo; details: 120 h, application rate of 200 ppm, L2 larvae, 5 days after infestation, read-out: effect in at least one of the two categories (mortality or growth inhibition)
Procedure: Example B2: Plutella Xylostella (Diamond Back Moth)
(§1) 24-well microtiter plates with artificial diet were treated with aqueous test solutions prepared from 10,000 ppm DMSO stock solutions by pipetting. After drying, the plates were infested with L2 larvae (10 to 15 per well). The samples were assessed for mortality and growth inhibition in comparison to untreated samples 5 days after infestation.
The following compounds gave an effect of at least 80% in at least one of the two categories (mortality or growth inhibition) at an application rate of 200 ppm: P1, P2, P3, P5, P10, P11, P14 and P20.

[4] = test system: Diabrotica Balteata; assay: Diabrotica balteata (corn root worm) maize sprout test; assay type: in vivo; details: 96 h, application rate of 200 ppm, L2 larvae, 4 days after infestation, read-out: effect in at least one of the two categories (mortality or growth inhibition)
Procedure: Example B3: Diabrotica Balteata (Corn Root Worm)
as §1, with “Maize sprouts, placed on an agar layer in 24-well” for “24-well”, “plates” for “plates with artificial diet”, “spraying.” for “pipetting.”, “(6” for “(10”, “10” for “15”, “4” for “5”
The following compounds gave an effect of at least 80% in at least one of the two categories (mortality or growth inhibition) at an application rate of 200 ppm: P1, P2, P3, P4, P5, P10 and P14.

| Structure (SMILES) | melting point [°C] | percent effect (mortality or growth inhibition) at 200 ppm [3] [%] | also measured |
| --- | --- | --- | --- |
| Cc1cc(NC(=O)O/N=C/c2ccc(-c3ncn(-c4ccc(OC(F)(F)F)cc4)n3)cc2)c(C(F)(F)F)o1 [Compound P19] | – | – | mortality at 200 ppm [1]: ≥ 80% |
| CC(C)c1ccccc1NC(=O)O/N=C/c1ccc(-c2ncn(-c3ccc(OC(F)(F)F)cc3)n2)cc1 (single isomer, unassigned) [Compound P2, [(E)-[4-[1-[4-(trifluoromethoxy)phenyl]-1,2,4-triazol-3-yl]phenyl]methyleneamino] N-(2-isopropylphenyl) carbamate] | – | ≥ 80 | percent control (mortality, anti-feedant effect or growth inhibition) at 200 ppm [2]: ≥ 80%; percent effect (mortality or growth inhibition) at 200 ppm [4]: ≥ 80% |
| CC/C(=N\OC(=O)Nc1c(C)cccc1C)c1ccc(-c2ncn(-c3ccc(OC(F)(F)F)cc3)n2)cc1 [Compound P10] | – | ≥ 80 | percent control (mortality, anti-feedant effect or growth inhibition) at 200 ppm [2]: ≥ 80%; percent effect (mortality or growth inhibition) at 200 ppm [4]: ≥ 80% |
| C/C(=N\OC(=O)Nc1c(C)cccc1C)c1ccc(-c2ncn(-c3ccc(OC(F)(F)F)cc3)n2)cc1 [Compound P5] | – | ≥ 80 | percent control (mortality, anti-feedant effect or growth inhibition) at 200 ppm [2]: ≥ 80%; percent effect (mortality or growth inhibition) at 200 ppm [4]: ≥ 80% |
| C/C(=N\OC(=O)Nc1ccccc1C(C)C)c1ccc(-c2ncn(-c3ccc(OC(F)(F)F)cc3)n2)cc1 [Compound P3] | – | ≥ 80 | percent effect (mortality or growth inhibition) at 200 ppm [4]: ≥ 80% |
| Cc1cccc(C)c1NC(=O)O/N=C/c1ccc(-c2ncn(-c3ccc(OC(F)(F)F)cc3)n2)cc1 [Compound P14] | – | ≥ 80 | percent effect (mortality or growth inhibition) at 200 ppm [4]: ≥ 80% |
| O=C(Nc1ccc(Cl)nc1)O/N=C/c1ccc(-c2ncn(-c3ccc(OC(F)(F)F)cc3)n2)cc1 [Compound P20] | – | ≥ 80 | percent control (mortality, anti-feedant effect or growth inhibition) at 200 ppm [2]: ≥ 80%; mortality at 200 ppm [1]: ≥ 80% |
| Cc1cccc(C)c1NC(=O)O/N=C/c1ccc2sc(-c3ccc(OC(F)(F)F)cc3)nc2c1 [Compound P17] | – | – | percent control (mortality, anti-feedant effect or growth inhibition) at 200 ppm [2]: ≥ 80% |
| C/C(=N\OC(=O)Nc1ccccc1C(F)(F)F)c1ccc(-c2ncn(-c3ccc(OC(F)(F)F)cc3)n2)cc1 [Compound P4, [1-[4-[1-[4-(trifluoromethoxy)phenyl]-1,2,4-triazol-3-yl]phenyl]ethylideneamino]N-[2-(trifluoromethyl)phenyl]carbamate] | – | – | percent effect (mortality or growth inhibition) at 200 ppm [4]: ≥ 80% |
| COc1ccccc1NC(=O)O/N=C/c1ccc(-c2ncn(-c3ccc(OC(F)(F)F)cc3)n2)cc1 | 182 to 183 | – | – |
| CC/C(=N\OC(=O)Nc1ccccc1C(F)(F)F)c1ccc(-c2ncn(-c3ccc(OC(F)(F)F)cc3)n2)cc1 | 151 to 154 | – | – |
| CC(C)c1ccccc1NC(=O)O/N=C\c1ccc(-c2ncn(-c3ccc(OC(F)(F)F)cc3)n2)cc1 (single isomer, unassigned) [Compound P1, [(Z)-[4-[1-[4-(trifluoromethoxy)phenyl]-1,2,4-triazol-3-yl]phenyl]methyleneamino] N-(2-isopropylphenyl) carbamate] | – | ≥ 80 | percent control (mortality, anti-feedant effect or growth inhibition) at 200 ppm [2]: ≥ 80%; percent effect (mortality or growth inhibition) at 200 ppm [4]: ≥ 80% |
| Cc1cccc(C)c1NC(=O)O/N=C/CCc1ccc(-c2ncn(-c3ccc(OC(F)(F)F)cc3)n2)cc1 [Compound P11] | – | ≥ 80 | – |

More lines, main results first:

| melting point [°C] | Structure (SMILES) | percent effect (mortality or growth inhibition) at 200 ppm [3] [%] | also measured |
| --- | --- | --- | --- |
| 93 to 130 | CC(C)c1ccccc1NC(=O)O/N=C/c1ccc2c(c1)nc(-c1ccc(OC(F)(F)F)cc1)n2C | – | – |
| 183 to 184 | O=C(Nc1ccccc1Cl)O/N=C/c1ccc(-c2ncn(-c3ccc(OC(F)(F)F)cc3)n2)cc1 | – | – |
| 179 to 182 | O=C(Nc1ccc(Cl)cc1Cl)O/N=C/c1ccc(-c2ncn(-c3ccc(OC(F)(F)F)cc3)n2)cc1 | – | – |
| 68 to 124 | Cc1cccc(C)c1NC(=O)O/N=C/c1ccc2c(c1)nc(-c1ccc(OC(F)(F)F)cc1)n2C | – | – |
| 174 to 180 | O=C(Nc1ccccc1)O/N=C/c1ccc(-c2ncn(-c3ccc(OC(F)(F)F)cc3)n2)cc1 | – | – |
| 170 to 171 | CC/C(=N\OC(=O)Nc1ccccc1C(C)C)c1ccc(-c2ncn(-c3ccc(OC(F)(F)F)cc3)n2)cc1 | – | – |
| 247 to 248 | Cc1cccc(C)c1NC(=O)O/N=C/c1ccc2c(c1)C(=O)N(c1ccc(OC(F)(F)F)cc1)C2=O | – | – |
| 98 to 130 | CC(C)c1ccccc1NC(=O)O/N=C/c1ccc2nc(-c3ccc(OC(F)(F)F)cc3)n(C)c2c1 | – | – |
| 179 to 180 | O=C(Nc1ccccc1C(F)(F)F)O/N=C/c1ccc(-c2ncn(-c3ccc(OC(F)(F)F)cc3)n2)cc1 | – | – |
| 68 to 124 | Cc1cccc(C)c1NC(=O)O/N=C/c1ccc2nc(-c3ccc(OC(F)(F)F)cc3)n(C)c2c1 | – | – |
| 197 to 198 | O=C(Nc1cscc1Br)O/N=C/c1ccc(-c2ncn(-c3ccc(OC(F)(F)F)cc3)n2)cc1 | – | – |
